Organism: Rattus norvegicus
Assay: DrugMatrix - Regimen: Daily Repeat
Format: toxicity, organism-based, Sprague-Dawley
Set-up: regimen Daily Repeat, gender Male, age 6-8 weeks
Details: in vivo, po, route oral GAVAGE, vehicle .5 % CMC; for ABSOLUTE BASOPHIL / ABSOLUTE EOSINOPHIL / ABSOLUTE LYMPHOCYTE / ABSOLUTE MONOCYTE / ABSOLUTE SEGMENTED NEUTROPHIL / BASOPHIL / EOSINOPHIL / ERYTHROCYTE COUNT / HEMATOCRIT / HEMOGLOBIN / LEUKOCYTE COUNT / LYMPHOCYTE / MEAN CORPUSCULAR HEMOGLOBIN / MEAN CORPUSCULAR HEMOGLOBIN CONCENTRATION / MEAN CORPUSCULAR VOLUME / MONOCYTE / NEUTROPHIL / NUCLEATED RED BLOOD CELLS / PLATELET COUNT: tissue Blood; for ALANINE AMINOTRANSFERASE / ALBUMIN / ALKALINE PHOSPHATASE / ASPARTATE AMINOTRANSFERASE / BLOOD UREA NITROGEN / CARBON DIOXIDE / CHLORIDE / CHOLESTEROL / CREATINE PHOSPHOKINASE / CREATININE / GLUCOSE / LACTATE DEHYDROGENASE / LIPASE / PHOSPHORUS / POTASSIUM / SODIUM / TOTAL BILIRUBIN / TOTAL PROTEIN / URIC ACID: tissue Plasma
[1] = 0 mg/kg, 72 h, dose level Control, time 3 day
[2] = 0 mg/kg, 120 h, dose level Control, time 5 day
[3] = 200 mg/kg, 72 h, dose level Low, time 3 day

CCC1=C(C)CN(C(=O)NCCc2ccc(S(=O)(=O)NC(=O)N[C@H]3CC[C@H](C)CC3)cc2)C1=O [GLIMEPIRIDE]
ABSOLUTE BASOPHIL [1]: 0 CELLS/uL
ABSOLUTE EOSINOPHIL [1]: 0 CELLS/uL
ABSOLUTE LYMPHOCYTE [1]: 12191.17 CELLS/uL
ABSOLUTE MONOCYTE [1]: 183.17 CELLS/uL
ABSOLUTE SEGMENTED NEUTROPHIL [1]: 1192.33 CELLS/uL
BASOPHIL [1]: 0%
EOSINOPHIL [1]: 0%
ERYTHROCYTE COUNT [1]: 5.51 x10E6/uL
HEMATOCRIT [1]: 35.45%
HEMOGLOBIN [1]: 13.82 G/DL
LEUKOCYTE COUNT [1]: 13.57 x10E3/uL
LYMPHOCYTE [1]: 89.83%
MEAN CORPUSCULAR HEMOGLOBIN [1]: 25.1 pg
MEAN CORPUSCULAR HEMOGLOBIN CONCENTRATION [1]: 38.98 G/DL
MEAN CORPUSCULAR VOLUME [1]: 64.42 fL
MONOCYTE [1]: 1.33%
NEUTROPHIL [1]: 8.83%
NUCLEATED RED BLOOD CELLS [1]: 0 /100WBC
PLATELET COUNT [1]: 1118.17 x10E3/uL
ALANINE AMINOTRANSFERASE [1]: 55 u/L
ALBUMIN [1]: 4.15 G/DL
ALKALINE PHOSPHATASE [1]: 449.5 u/L
ASPARTATE AMINOTRANSFERASE [1]: 112.83 u/L
BLOOD UREA NITROGEN [1]: 17.33 mg/dL
CARBON DIOXIDE [1]: 29.5 mmol/L
CHLORIDE [1]: 101 MEQ/L
CHOLESTEROL [1]: 70 mg/dL
CREATINE PHOSPHOKINASE [1]: 1325.83 u/L
CREATININE [1]: 0.18 mg/dL
GLUCOSE [1]: 171.5 mg/dL
LACTATE DEHYDROGENASE [1]: 386 u/L
LIPASE [1]: 10 u/L
PHOSPHORUS [1]: 11.57 mg/dL
POTASSIUM [1]: 6.21 MEQ/L
SODIUM [1]: 141.65 MEQ/L
TOTAL BILIRUBIN [1]: 0.15 mg/dL
TOTAL PROTEIN [1]: 5.75 G/DL
URIC ACID [1]: 1.28 mg/dL
ABSOLUTE BASOPHIL [2]: 0 CELLS/uL
ABSOLUTE EOSINOPHIL [2]: 138.17 CELLS/uL
ABSOLUTE LYMPHOCYTE [2]: 13283.17 CELLS/uL
ABSOLUTE MONOCYTE [2]: 303.83 CELLS/uL
ABSOLUTE SEGMENTED NEUTROPHIL [2]: 1308.17 CELLS/uL
BASOPHIL [2]: 0%
EOSINOPHIL [2]: 1%
ERYTHROCYTE COUNT [2]: 5.32 x10E6/uL
HEMATOCRIT [2]: 33.8%
HEMOGLOBIN [2]: 13.63 G/DL
LEUKOCYTE COUNT [2]: 15.03 x10E3/uL
LYMPHOCYTE [2]: 88.33%
MEAN CORPUSCULAR HEMOGLOBIN [2]: 25.68 pg
MEAN CORPUSCULAR HEMOGLOBIN CONCENTRATION [2]: 40.35 G/DL
MEAN CORPUSCULAR VOLUME [2]: 63.67 fL
MONOCYTE [2]: 1.83%
NEUTROPHIL [2]: 8.83%
NUCLEATED RED BLOOD CELLS [2]: 0 /100WBC
PLATELET COUNT [2]: 1097.5 x10E3/uL
ALANINE AMINOTRANSFERASE [2]: 54.5 u/L
ALBUMIN [2]: 4.27 G/DL
ALKALINE PHOSPHATASE [2]: 337 u/L
ASPARTATE AMINOTRANSFERASE [2]: 94.67 u/L
BLOOD UREA NITROGEN [2]: 17 mg/dL
CARBON DIOXIDE [2]: 28.33 mmol/L
CHLORIDE [2]: 101.5 MEQ/L
CHOLESTEROL [2]: 71.33 mg/dL
CREATINE PHOSPHOKINASE [2]: 628.17 u/L
CREATININE [2]: 0.19 mg/dL
GLUCOSE [2]: 177.83 mg/dL
LACTATE DEHYDROGENASE [2]: 500.5 u/L
LIPASE [2]: 9.5 u/L
PHOSPHORUS [2]: 12.3 mg/dL
POTASSIUM [2]: 5.63 MEQ/L
SODIUM [2]: 143.03 MEQ/L
TOTAL BILIRUBIN [2]: 0.2 mg/dL
TOTAL PROTEIN [2]: 6.02 G/DL
URIC ACID [2]: 1.5 mg/dL
ABSOLUTE BASOPHIL [3]: 0 CELLS/uL
ABSOLUTE EOSINOPHIL [3]: 128.33 CELLS/uL
ABSOLUTE LYMPHOCYTE [3]: 12992 CELLS/uL
ABSOLUTE MONOCYTE [3]: 35 CELLS/uL
ABSOLUTE SEGMENTED NEUTROPHIL [3]: 1711.33 CELLS/uL
BASOPHIL [3]: 0%
EOSINOPHIL [3]: 1%
ERYTHROCYTE COUNT [3]: 5.2 x10E6/uL
HEMATOCRIT [3]: 33.43%
HEMOGLOBIN [3]: 13.5 G/DL
LEUKOCYTE COUNT [3]: 14.87 x10E3/uL
LYMPHOCYTE [3]: 87%
MEAN CORPUSCULAR HEMOGLOBIN [3]: 26.03 pg
MEAN CORPUSCULAR HEMOGLOBIN CONCENTRATION [3]: 40.4 G/DL
MEAN CORPUSCULAR VOLUME [3]: 64.33 fL
MONOCYTE [3]: 0.33%
NEUTROPHIL [3]: 11.67%
NUCLEATED RED BLOOD CELLS [3]: 0 /100WBC
PLATELET COUNT [3]: 1286.33 x10E3/uL
ALANINE AMINOTRANSFERASE [3]: 61.67 u/L
ALBUMIN [3]: 4.23 G/DL
ALKALINE PHOSPHATASE [3]: 355.67 u/L
ASPARTATE AMINOTRANSFERASE [3]: 97.67 u/L
BLOOD UREA NITROGEN [3]: 16.33 mg/dL
CARBON DIOXIDE [3]: 24 mmol/L
CHLORIDE [3]: 103.67 MEQ/L
CHOLESTEROL [3]: 81.33 mg/dL
CREATINE PHOSPHOKINASE [3]: 1168 u/L
CREATININE [3]: 0.16 mg/dL
GLUCOSE [3]: 150.33 mg/dL
LACTATE DEHYDROGENASE [3]: 169.33 u/L
LIPASE [3]: 10 u/L
PHOSPHORUS [3]: 12.27 mg/dL
POTASSIUM [3]: 5.69 MEQ/L
SODIUM [3]: 144.2 MEQ/L
TOTAL BILIRUBIN [3]: 0.13 mg/dL
TOTAL PROTEIN [3]: 5.83 G/DL
URIC ACID [3]: 1.53 mg/dL

— ChEMBL document CHEMBL3885881, “DrugMatrix”
